From US8119589B2, “Modulation of CD4+ T cell responses by a tick saliva protein, Salp15 and polypeptides derived therefrom” (University of North Carolina at Charlotte, priority 2004, dated 2012)

Assays:
[1] = test system: CD4+ T cells; experiment: Salp15488 binding on cell surface by confocal microscopy; parameters: species or system mouse
Protocol: For colocalization experiments, Jurkat and CD4^+ T cells were cytospun as described herein. HeLa and HeLa-CD4 cells were grown on chamber slides. The cells were fixed and stained with anti-CD4 and Salp15 as follows. Purified Salp15 was labeled using Alexa-488 with the Protein Labeling Kit (Molecular Probes) according to the manufacturer's instructions. Fixed cells were blocked with 5% normal serum and anti-CD16/CD32 (1:100) in PBS, incubated with 1 μg of monoclonal biotinylated anti-CD4 (L3T4) (BD Biosciences Pharmingen) followed by streptavidin594 staining. The cells were then stained with 20 μg/mL of Salp15488. For competition assays, cells were first blocked with 5% normal serum, incubated with either polyclonal anti-CD4 antibody, MT310, OKT4, normal rabbit IgG, Salp15 (0.5 mg/mL) or lysozyme (0.5 mg/mL) followed by staining with Salp15488. All samples were mounted in a GVA Mount (Zymed, San Francisco, Calif., U.S.A.) and visualized with an Olympus Confocal microscope equipped with Fluoview 3.0 software.

[2] = test system: Jurkat clone E6-1; experiment: TCR ligation-induced tyrosine phosphorylation in stimulated Jurkat cells; assay type: cell-based, human
Protocol: Naïve CD4+ T cells from C3H/HeN, Balb/c, and B10.BR mice were purified as previously described (Anguita et al., 2002). CD4+ T cells were preincubated in Click's modified Bruff's Medium (Sigma Chemical Co., St. Louis, Mo., U.S.A.) for 10 minutes at 37° C. with and without Salp15 (50 μg/mL) and stimulated for 20 min or the indicated times at 37° C. with 10 μg/mL of anti-CD3ε, 1 μg/mL of anti-CD28, and 10 μg/mL of anti-armenian and syrian hamster IgG (BD Biosciences Pharmingen, San Jose, Calif., U.S.A.). Jurkat (E6-1) cells were stimulated using 5 μg/mL of OKT3 mAb (eBioscience, San Diego, Calif., U.S.A.) and 1 μg/mL of anti-human CD28 cross linked with 5 μg/mL anti-mouse IgG for the indicated times.
For the visualization of lipid rafts, phospho-tyrosine, and cytoskeleton reorganization, CD4^+, CD8^+ or Jurkat cells were cytospun for 10 minutes at 1000 RPM onto positively charged microslides (Fisher Scientific, Hampton, N.H., U.S.A.). The cells were fixed with 3.7% paraformaldehyde (Sigma Chemical Co.) for 15 minutes and stained with CTB594 (Molecular Probes, Eugene, Oreg., U.S.A.), AlexaFluor488 labeled phalloidin (Molecular Probes) or (1:50) biotin-conjugated anti-p-Tyr (PY99) followed by Streptavidin-AlexaFluor594 (1:100, Molecular Probes). […]

[3] = biological target: T1, sCD4 D1-D4 (Homo sapiens, UniProt P01730); experiment: Analytical gel filtration and native gel electrophoresis of Salp15-sCD4; assay type: binding; details: native PAGE and Western blot
T1 construct: a sCD4 preparation that contains all four extracellular domains (D1-D4)
Protocol: Purified sCD4 (D1-D4, 10 μg) and Salp15 (20 μg) were eluted through two SUPERDEX-200™ HR 10/30 gel filtration columns (Amersham Pharmacia Biotech, Piscataway, N.J., U.S.A.) connected in tandem using PBS as equilibration and elution buffer at a flow rate of 0.3 mL/min using an FPLC system (Amersham Pharmacia Biotech) equipped with a liquid chromatography controller LCC-501 Plus and regulated using FPLC director V1.10. To get the elution profile of the Salp15-CD4 complex, Salp15 was incubated with sCD4 before passing it through the gel filtration column. Blue dextran was used to estimate the void volume of the columns, while BSA, ovalbumin and lysozyme were used as molecular weight standards with elution volumes of 14.78 mL, 26.45 mL, 28.45 mL and 39.28 mL, respectively.
Purified sCD4 (D1-D4, 10 μg), Salp15 (10 μg) and sCD4 (10 μg)+Salp15 (10 μg) were diluted into 50% glycerol, 40 mM HEPES (pH 6.5) and 50 mM imidazole (pH 6.5). The native gel [5% Acrylamide:Bis (29:1), 40 mM HEPES (pH 6.5), 50 mM imidazole (pH 6.5) and 10% glycerol] electrophoresis was performed using a 40 mM HEPES (pH 6.5) running buffer and 50 mM imidazole (pH 6.5) at 8 mAmps for 1.5 hours at 4° C. The gel was stained with coomassie blue or transferred to IMMOBILON P® (Millipore) blotting paper for immunoblotting with anti-Poly His-HRP and anti-CD4.

Salp15: secreted salivary protein from Ixodes scapularis, SEQ ID NO: 2; recombinant His-tagged, produced in Drosophila S2 cells
Binding to CD4+ T cells [1]: bind specifically
Inhibitory effects on TCR ligation-induced tyrosine phosphorylation ([2]; Jurkat cells, anti-pTyr staining): also observed
Inhibition of PLCγ1 phosphorylation ([2]; Jurkat clone E6-1): also evident
Migration with sCD4 (D1-D4) in native gel [3]: co-migrated
